Source: ChEMBL document CHEMBL5537193, “Multitargeting HDAC Inhibitors Containing a RAS/RAF Protein Interfering Unit” (J Med Chem, 2024)
One block for each compound: values may come before it. Active and inactive are the calls of the source. The rule behind the calls is not given here.

How the values were obtained:
A549 = experiment: cells; conditions: Homo sapiens, A549, 72 h
Description: Cytotoxicity against human A549 cells assessed as inhibition of cell growth incubated for 72 hrs by MTT assay

NCI-H1975 = experiment: cells; conditions: Homo sapiens, NCI-H1975, 72 h
Description: Cytotoxicity against human NCI-H1975 cells assessed as inhibition of cell growth incubated for 72 hrs by MTT assay

A-431 = experiment: cells; conditions: Homo sapiens, A-431, 72 h
Description: Cytotoxicity against human A-431 cells assessed as inhibition of cell growth incubated for 72 hrs by MTT assay

SGC-7901 = experiment: cells; conditions: Homo sapiens, SGC-7901, 72 h
Description: Cytotoxicity against human SGC-7901 cells assessed as inhibition of cell growth incubated for 72 hrs by MTT assay

HepG2 = experiment: cells; conditions: Homo sapiens, HepG2, 72 h
Description: Cytotoxicity against human HepG2 cells assessed as inhibition of cell growth incubated for 72 hrs by MTT assay

MCF7 = experiment: cells; conditions: Homo sapiens, MCF7, 72 h
Description: Cytotoxicity against human MCF7 cells assessed as inhibition of cell growth incubated for 72 hrs by MTT assay

L02 = experiment: cells; conditions: Homo sapiens, L02, 72 h
Description: Cytotoxicity against human L02 cells assessed as inhibition of cell growth incubated for 72 hrs by MTT assay

[1] = Metabolic stability in human liver microsomes assessed as half-life measured upto 40 mins by LC-MS/MS analysis; format: ADME, Microsome
[2] = Metabolic stability in rat liver microsomes assessed as half-life measured upto 40 mins by LC-MS/MS analysis; format: ADME, Microsome
[3] = Metabolic stability in mouse liver microsomes assessed as half-life measured upto 40 mins by LC-MS/MS analysis; format: ADME, Microsome
[4] = Metabolic stability in human liver microsomes assessed as intrinsic clearance measured upto 40 mins by LC-MS/MS analysis; format: ADME, Microsome; conditions: read-out: CLH
[5] = Metabolic stability in rat liver microsomes assessed as intrinsic clearance measured upto 40 mins by LC-MS/MS analysis; format: ADME, Microsome; conditions: read-out: CLH
[6] = Metabolic stability in mouse liver microsomes assessed as intrinsic clearance measured upto 40 mins by LC-MS/MS analysis; format: ADME, Microsome; conditions: read-out: CLH
Histone deacetylase 4 = Histone deacetylase 4 (Homo sapiens, UniProt P56524); experiment: Inhibition of HDAC4 (unknown origin)
Sequence of Histone deacetylase 4 (P56524 whole entry): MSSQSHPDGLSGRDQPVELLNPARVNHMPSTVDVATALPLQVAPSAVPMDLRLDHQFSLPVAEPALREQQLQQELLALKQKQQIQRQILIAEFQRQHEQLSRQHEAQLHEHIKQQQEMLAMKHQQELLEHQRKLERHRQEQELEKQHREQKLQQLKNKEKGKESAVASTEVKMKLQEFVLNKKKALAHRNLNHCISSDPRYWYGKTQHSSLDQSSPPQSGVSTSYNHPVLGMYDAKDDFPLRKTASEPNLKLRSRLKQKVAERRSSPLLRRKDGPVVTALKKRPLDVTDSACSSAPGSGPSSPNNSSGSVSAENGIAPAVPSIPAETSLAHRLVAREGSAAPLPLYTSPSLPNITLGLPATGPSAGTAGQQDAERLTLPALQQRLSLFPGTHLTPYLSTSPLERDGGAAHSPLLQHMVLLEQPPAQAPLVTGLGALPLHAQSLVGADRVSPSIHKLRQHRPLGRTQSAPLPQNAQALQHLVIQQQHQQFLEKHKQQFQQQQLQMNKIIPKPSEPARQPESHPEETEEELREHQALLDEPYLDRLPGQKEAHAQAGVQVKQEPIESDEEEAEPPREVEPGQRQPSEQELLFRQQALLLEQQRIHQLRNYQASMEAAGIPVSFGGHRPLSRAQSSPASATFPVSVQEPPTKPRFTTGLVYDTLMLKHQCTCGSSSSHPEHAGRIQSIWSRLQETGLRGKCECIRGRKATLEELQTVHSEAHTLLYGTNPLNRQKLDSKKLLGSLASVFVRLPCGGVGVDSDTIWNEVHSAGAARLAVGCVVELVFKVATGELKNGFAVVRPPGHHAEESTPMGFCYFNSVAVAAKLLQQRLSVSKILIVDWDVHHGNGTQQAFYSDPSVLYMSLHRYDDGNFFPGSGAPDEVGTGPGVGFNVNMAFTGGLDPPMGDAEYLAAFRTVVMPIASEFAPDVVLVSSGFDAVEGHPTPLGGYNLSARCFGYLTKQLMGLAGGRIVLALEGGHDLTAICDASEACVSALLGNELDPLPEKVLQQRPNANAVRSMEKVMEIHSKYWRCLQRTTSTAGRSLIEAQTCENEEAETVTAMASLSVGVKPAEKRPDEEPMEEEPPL

Histone deacetylase 9 = Histone deacetylase 9 (Homo sapiens, UniProt Q9UKV0); experiment: Inhibition of HDAC9 (unknown origin)
Sequence of Histone deacetylase 9 (Q9UKV0 whole entry): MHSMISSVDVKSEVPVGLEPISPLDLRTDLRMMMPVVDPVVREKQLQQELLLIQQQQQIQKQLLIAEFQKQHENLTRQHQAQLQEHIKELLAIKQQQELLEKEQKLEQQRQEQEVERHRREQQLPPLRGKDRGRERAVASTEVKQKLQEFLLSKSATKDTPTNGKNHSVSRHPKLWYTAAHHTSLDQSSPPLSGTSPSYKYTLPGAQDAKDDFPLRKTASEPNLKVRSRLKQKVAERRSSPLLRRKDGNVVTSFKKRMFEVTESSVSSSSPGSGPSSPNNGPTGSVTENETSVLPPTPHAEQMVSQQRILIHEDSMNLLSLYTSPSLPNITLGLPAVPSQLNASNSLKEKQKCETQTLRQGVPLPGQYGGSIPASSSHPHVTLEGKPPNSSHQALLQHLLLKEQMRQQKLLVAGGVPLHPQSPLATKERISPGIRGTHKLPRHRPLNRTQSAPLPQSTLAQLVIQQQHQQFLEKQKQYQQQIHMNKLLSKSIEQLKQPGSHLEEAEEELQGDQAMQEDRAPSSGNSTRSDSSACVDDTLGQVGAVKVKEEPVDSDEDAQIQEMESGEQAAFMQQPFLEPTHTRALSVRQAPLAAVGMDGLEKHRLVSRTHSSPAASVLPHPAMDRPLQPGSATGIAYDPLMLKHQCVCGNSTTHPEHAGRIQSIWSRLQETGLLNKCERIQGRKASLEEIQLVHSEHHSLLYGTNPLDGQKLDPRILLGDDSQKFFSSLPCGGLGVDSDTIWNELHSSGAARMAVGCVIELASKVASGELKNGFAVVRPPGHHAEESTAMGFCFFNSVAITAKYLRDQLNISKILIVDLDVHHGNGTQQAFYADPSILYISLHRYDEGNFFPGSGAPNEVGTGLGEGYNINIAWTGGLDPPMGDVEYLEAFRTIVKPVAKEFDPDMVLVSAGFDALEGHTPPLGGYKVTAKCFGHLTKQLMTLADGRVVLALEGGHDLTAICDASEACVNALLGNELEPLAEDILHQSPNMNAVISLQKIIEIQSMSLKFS

[7] = target: Serine/threonine-protein kinase PLK1 (Homo sapiens, UniProt P53350); experiment: Inhibition of PLK1 (unknown origin)
Sequence of Serine/threonine-protein kinase PLK1 (P53350 whole entry): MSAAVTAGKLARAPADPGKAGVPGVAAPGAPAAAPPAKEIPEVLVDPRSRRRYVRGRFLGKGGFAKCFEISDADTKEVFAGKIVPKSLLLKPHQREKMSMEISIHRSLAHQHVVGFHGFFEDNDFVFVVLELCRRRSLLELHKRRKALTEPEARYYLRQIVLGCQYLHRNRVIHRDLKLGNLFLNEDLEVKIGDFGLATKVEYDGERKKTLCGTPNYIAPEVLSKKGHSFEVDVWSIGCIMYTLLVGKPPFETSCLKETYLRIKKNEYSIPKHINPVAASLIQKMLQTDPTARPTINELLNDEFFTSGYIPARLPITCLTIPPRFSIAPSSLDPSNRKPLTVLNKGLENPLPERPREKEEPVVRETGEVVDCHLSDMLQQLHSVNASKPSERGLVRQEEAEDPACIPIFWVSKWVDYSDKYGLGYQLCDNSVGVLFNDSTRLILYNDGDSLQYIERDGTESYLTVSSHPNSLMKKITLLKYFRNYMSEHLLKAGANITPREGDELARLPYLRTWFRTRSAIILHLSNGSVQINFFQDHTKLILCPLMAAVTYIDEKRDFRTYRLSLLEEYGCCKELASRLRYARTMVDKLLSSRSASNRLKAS

PANC-1 [8] = experiment: Cell cycle arrest in human PANC-1 cells assessed as accumulation of cells at G2-M phase at 2 uM incubated for 24 hrs by PI/RNase staining based flow cytometric analysis; format: functional
HT-29 [9] = experiment: Cell cycle arrest in human HT-29 cells assessed as accumulation of cells at G2-M phase at 2 uM incubated for 24 hrs by PI/RNase staining based flow cytometric analysis; format: functional
PANC-1 [10] = experiment: Induction of apoptosis in human PANC-1 cells assessed as apoptotic cells at 2 uM incubated for 24 hrs by flow cytometric analysis relative to control; format: functional
HT-29 [11] = experiment: Induction of apoptosis in human HT-29 cells assessed as apoptotic ratio at 2 uM incubated for 24 hrs by flow cytometric analysis; format: functional
PANC-1 [12] = experiment: Induction of apoptosis in human PANC-1 cells incubated for 24 hrs by flow cytometric analysis; format: functional, cell-based; conditions: dose 1-4 µM
HT-29 [13] = experiment: Induction of apoptosis in human HT-29 cells incubated for 24 hrs by flow cytometric analysis; format: functional, cell-based; conditions: dose 1-4 µM
PANC-1 [14] = experiment: Induction of apoptosis in human PANC-1 cells assessed as increase in Bax expression at 2 uM incubated for 24 hrs by Western blot analysis; format: functional, cell-based
PANC-1 [15] = experiment: Induction of apoptosis in human PANC-1 cells assessed as increase in Cytochrome C expression level at 2 uM incubated for 24 hrs by Western blot analysis; format: functional, cell-based
PANC-1 [16] = experiment: Induction of apoptosis in human PANC-1 cells assessed as increase in cleaved caspase-9 expression level at 2 uM incubated for 24 hrs by Western blot analysis; format: functional, cell-based
PANC-1 [17] = experiment: Induction of apoptosis in human PANC-1 cells assessed as increase in cleaved caspase-3 expression level at 2 uM incubated for 24 hrs by Western blot analysis; format: functional, cell-based
PANC-1 [18] = experiment: Induction of apoptosis in human PANC-1 cells assessed as increase in cleaved PARP expression level at 2 uM incubated for 24 hrs by Western blot analysis; format: functional, cell-based
[19] = Metabolic stability in human liver microsomes assessed as half-life at 1 uM measured upto 40 mins by LC-MS/MS analysis; format: ADME, Microsome
[20] = Metabolic stability in rat liver microsomes assessed as half-life at 1 uM measured upto 40 mins by LC-MS/MS analysis; format: ADME, Microsome
[21] = Metabolic stability in mouse liver microsomes assessed as half-life at 1 uM measured upto 40 mins by LC-MS/MS analysis; format: ADME, Microsome
[22] = Metabolic stability in human liver microsomes assessed as intrinsic clearance at 1 uM measured upto 40 mins by LC-MS/MS analysis; format: ADME, Microsome; conditions: read-out: CLH
[23] = Metabolic stability in rat liver microsomes assessed as intrinsic clearance at 1 uM measured upto 40 mins by LC-MS/MS analysis; format: ADME, Microsome; conditions: read-out: CLH
[24] = Metabolic stability in mouse liver microsomes assessed as intrinsic clearance at 1 uM measured upto 40 mins by LC-MS/MS analysis; format: ADME, Microsome; conditions: read-out: CLH
PANC-1 [25] = experiment: Effect on RAS protein expression in human PANC-1 cells at 2 uM incubated for 24 hrs by Western blot analysis; format: functional, cell-based
PANC-1 [26] = experiment: Effect on MEK protein expression in human PANC-1 cells at 2 uM incubated for 24 hrs by Western blot analysis; format: functional, cell-based
PANC-1 [27] = experiment: Effect on ERK1/2 protein expression in human PANC-1 cells at 2 uM incubated for 24 hrs by Western blot analysis; format: functional, cell-based
HT-29 [28] = experiment: Effect on RAS protein expression in human HT-29 cells at 2 uM incubated for 24 hrs by Western blot analysis; format: functional, cell-based
HT-29 [29] = experiment: Effect on MEK protein expression in human HT-29 cells at 2 uM incubated for 24 hrs by Western blot analysis; format: functional, cell-based
HT-29 [30] = experiment: Effect on ERK1/2 protein expression in human HT-29 cells at 2 uM incubated for 24 hrs by Western blot analysis; format: functional, cell-based
PANC-1 [31] = experiment: Inhibition of MAPK signaling pathway in human PANC-1 cells assessed as inhibition of C-RAF phosphorylation at Ser338 residue at 2 uM incubated for 24 hrs by Western blot analysis; format: cell-based
PANC-1 [32] = experiment: Inhibition of MAPK signaling pathway in human PANC-1 cells assessed as inhibition of MEK phosphorylation at 2 uM incubated for 24 hrs by Western blot analysis; format: cell-based
PANC-1 [33] = experiment: Inhibition of MAPK signaling pathway in human PANC-1 cells assessed as inhibition of ERK1/2 phosphorylation at 2 uM incubated for 24 hrs by Western blot analysis; format: cell-based
HT-29 [34] = experiment: Inhibition of MAPK signaling pathway in human HT-29 cells assessed as inhibition of C-RAF phosphorylation at Ser338 residue at 2 uM incubated for 24 hrs by Western blot analysis; format: cell-based
HT-29 [35] = experiment: Inhibition of MAPK signaling pathway in human HT-29 cells assessed as inhibition of MEK phosphorylation at 2 uM incubated for 24 hrs by Western blot analysis; format: cell-based
HT-29 [36] = experiment: Inhibition of MAPK signaling pathway in human HT-29 cells assessed as inhibition of ERK1/2 phosphorylation at 2 uM incubated for 24 hrs by Western blot analysis; format: cell-based
PANC-1 [37] = experiment: Effect on Histone H3 expression in human PANC-1 cells at 2 uM incubated for 24 hrs by Western blot analysis; format: functional, cell-based
PANC-1 [38] = experiment: Effect on alpha-tubulin expression in human PANC-1 cells at 2 uM incubated for 24 hrs by Western blot analysis; format: functional, cell-based
HT-29 [39] = experiment: Effect on Histone H3 expression in human HT-29 cells at 2 uM incubated for 24 hrs by Western blot analysis; format: functional, cell-based
HT-29 [40] = experiment: Effect on alpha-tubulin expression in human HT-29 cells at 2 uM incubated for 24 hrs by Western blot analysis; format: functional, cell-based
PANC-1 [41] = experiment: cells; conditions: Homo sapiens, PANC-1, 72 h
Description: Cytotoxicity against human PANC-1 cells assessed as inhibition of cell growth incubated for 72 hrs by MTT assay

HT-29 [42] = experiment: cells; conditions: Homo sapiens, HT-29, 72 h
Description: Cytotoxicity against human HT-29 cells assessed as inhibition of cell growth incubated for 72 hrs by MTT assay

K562 = experiment: cells; conditions: Homo sapiens, K562, 72 h
Description: Cytotoxicity against human K562 cells assessed as inhibition of cell growth incubated for 72 hrs by MTT assay

MV4-11 = experiment: cells; conditions: Homo sapiens, MV4-11, 72 h
Description: Cytotoxicity against human MV4-11 cells assessed as inhibition of cell growth incubated for 72 hrs by MTT assay

Structure (SMILES): O=C(c1ccc(F)cc1)C1CCN(CCn2c(=O)[nH]c3ccccc3c2=O)CC1 [KETANSERIN]
half-life [1]: 36.6 min | half-life [2]: 17.6 min | half-life [3]: 20.6 min | CLint scaled [4]: 47.5 mL/min/kg | CLint scaled [5]: 141 mL/min/kg | CLint scaled [6]: 265 mL/min/kg

Structure (SMILES): COc1cc(OC)c(/C=C/S(=O)(=O)Cc2ccc(OC)c(NCC(=O)Nc3ccccc3N)c2)c(OC)c1
IC50 (A549): 3.67 µM | IC50 (NCI-H1975): 2.18 µM | IC50 (A-431): 4.14 µM | IC50 (SGC-7901): 4.98 µM | IC50 (HepG2): 4.75 µM | IC50 (MCF7): 4.94 µM | IC50 (L02): > 40 µM

Structure (SMILES): COc1cc(OC)c(/C=C/S(=O)(=O)Cc2ccc(OC)c(NC(=O)CCC(=O)NO)c2)c(OC)c1
IC50 (Histone deacetylase 4): 0.0841 µM | IC50 (Histone deacetylase 9): 0.0913 µM | IC50 [7]: 0.0205 µM | inhibition [7]: Dose-Dependent Effect | Activity (PANC-1 [8]): Active | Activity (HT-29 [9]): Active | Activity (PANC-1 [10]): 55.1% | Activity (HT-29 [11]): 46.2% | Activity (PANC-1 [12]): Dose-Dependent Effect | Activity (HT-29 [13]): Dose-Dependent Effect | Activity (PANC-1 [14]): Active | Activity (PANC-1 [15]): Active | Activity (PANC-1 [16]): Active | Activity (PANC-1 [17]): Active | Activity (PANC-1 [18]): Active | half-life at 1 µM [19]: 48 min | half-life at 1 µM [20]: 35.4 min | half-life at 1 µM [21]: 14.4 min | CLint scaled at 1 µM [22]: 36.2 mL/min/kg | CLint scaled at 1 µM [23]: 70.2 mL/min/kg | CLint scaled at 1 µM [24]: 379 mL/min/kg | Activity (PANC-1 [25]): inactive | Activity (PANC-1 [26]): inactive | Activity (PANC-1 [27]): inactive | Activity (HT-29 [28]): inactive | Activity (HT-29 [29]): inactive | Activity (HT-29 [30]): inactive | inhibition (PANC-1 [31]): Active | inhibition (PANC-1 [32]): Active | inhibition (PANC-1 [33]): Active | inhibition (HT-29 [34]): Active | inhibition (HT-29 [35]): Active | inhibition (HT-29 [36]): Active | Activity (PANC-1 [37]): inactive | Activity (PANC-1 [38]): inactive | Activity (HT-29 [39]): inactive | Activity (HT-29 [40]): inactive | IC50 (A549): 0.21 µM | IC50 (NCI-H1975): 0.08 µM | IC50 (A-431): 0.33 µM | IC50 (SGC-7901): 0.26 µM | IC50 (HepG2): 1.68 µM | IC50 (MCF7): 0.24 µM | IC50 (L02): > 40 µM | IC50 (PANC-1 [41]): 0.11 µM | IC50 (HT-29 [42]): 0.12 µM | IC50 (K562): 0.02 µM | IC50 (MV4-11): 0.15 µM

The remaining compounds from weak to strong by IC50 (A549), led by results:

IC50 (A549): 35.5 µM | IC50 (NCI-H1975): 8.45 µM | IC50 (A-431): 4.11 µM | IC50 (SGC-7901): 31.9 µM | IC50 (HepG2): 18.6 µM | IC50 (MCF7): 17.7 µM
Structure (SMILES): COc1cc(OC)c(/C=C/S(=O)(=O)Cc2ccc(OC)c(NC(=O)CCCC(=O)Nc3ccccc3N)c2)c(OC)c1
IC50 (L02): > 40 µM

IC50 (A549): 11.3 µM | IC50 (NCI-H1975): 5.11 µM | IC50 (A-431): 8.69 µM | IC50 (SGC-7901): 13.2 µM | IC50 (HepG2): 7.3 µM | IC50 (MCF7): 12.6 µM
Structure (SMILES): COc1cc(OC)c(/C=C/S(=O)(=O)Cc2ccc(OC)c(NCCC(=O)Nc3ccccc3N)c2)c(OC)c1
IC50 (L02): > 40 µM

IC50 (A549): 8.56 µM | IC50 (NCI-H1975): 9.48 µM | IC50 (A-431): 18.8 µM | IC50 (SGC-7901): 12.3 µM | IC50 (HepG2): 29.1 µM | IC50 (MCF7): 9.68 µM
Structure (SMILES): COc1cc(OC)c(/C=C/S(=O)(=O)Cc2ccc(OC)c(NC(=O)CCCCC(=O)NO)c2)c(OC)c1
IC50 (L02): > 40 µM

IC50 (A549): 7.41 µM | IC50 (NCI-H1975): 2.58 µM | IC50 (A-431): 1.26 µM | IC50 (SGC-7901): 6.6 µM | IC50 (HepG2): 12.3 µM | IC50 (MCF7): 13.2 µM
Structure (SMILES): COc1cc(OC)c(/C=C/S(=O)(=O)Cc2ccc(OC)c(NC(=O)CCC(=O)Nc3ccccc3N)c2)c(OC)c1
IC50 (L02): > 40 µM
